What was measured:
JAK3 = JAK3 (Homo sapiens (Human), UniProt P52333); test: Biochemical JAK kinase assay (LanthaScreen), JAK3; settings: read-out: JAK3 pKi (converted)
Description: (§1) A panel of four LanthaScreen JAK biochemical assays (JAK1, 2, 3 and Tyk2) were carried in a common kinase reaction buffer (50 mM HEPES, pH 7.5, 0.01% Brij-35, 10 mM MgCl2, and 1 mM EGTA). Recombinant GST-tagged JAK enzymes and a GFP-tagged STAT1 peptide substrate were obtained from Life Technologies.
(§2) Serially diluted compounds were pre-incubated with each of the four JAK enzymes and the substrate in white 384-well microplates (Corning) at ambient temperature for 1 h. ATP was subsequently added to initiate the kinase reactions in 10 μL total volume, with 1% DMSO. The final enzyme concentrations for JAK1, 2, 3 and Tyk2 are 4.2 nM, 0.1 nM, 1 nM, and 0.25 nM respectively; the corresponding Km ATP concentrations used are 25 μM, 3 μM, 1.6 μM, and 10 μM; while the substrate concentration is 200 nM for all four assays. Kinase reactions were allowed to proceed for 1 hour at ambient temperature before a 10 μL preparation of EDTA (10 mM final concentration) and Tb-anti-pSTAT1 (pTyr701) antibody (Life Technologies, 2 nM final concentration) in TR-FRET dilution buffer (Life Technologies) was added. The plates were allowed to incubate at ambient temperature for 1 h before being read on the EnVision reader (Perkin Elmer). Emission ratio signals (520 nm/495 nm) were recorded and utilized to calculate the percent inhibition values based on DMSO and background controls.
(§3) For dose-response analysis, percent inhibition data were plotted vs. compound concentrations, and IC50 values were determined from a 4-parameter robust fit model with the Prism software (GraphPad Software). Results were expressed as pIC50 (negative logarithm of IC50) and subsequently converted to pKi (negative logarithm of dissociation constant, Ki) using the Cheng-Prusoff equation.
(§4) Test compounds having a lower Ki value or higher pKi value in the four JAK assays show greater inhibition of JAK activity.

JAK2 = JAK2 (Homo sapiens (Human), UniProt O60674); test: Biochemical JAK kinase assay (LanthaScreen), JAK2; settings: for Ki: read-out: JAK2 pKi (converted)
JAK2, sequence (O60674 whole entry): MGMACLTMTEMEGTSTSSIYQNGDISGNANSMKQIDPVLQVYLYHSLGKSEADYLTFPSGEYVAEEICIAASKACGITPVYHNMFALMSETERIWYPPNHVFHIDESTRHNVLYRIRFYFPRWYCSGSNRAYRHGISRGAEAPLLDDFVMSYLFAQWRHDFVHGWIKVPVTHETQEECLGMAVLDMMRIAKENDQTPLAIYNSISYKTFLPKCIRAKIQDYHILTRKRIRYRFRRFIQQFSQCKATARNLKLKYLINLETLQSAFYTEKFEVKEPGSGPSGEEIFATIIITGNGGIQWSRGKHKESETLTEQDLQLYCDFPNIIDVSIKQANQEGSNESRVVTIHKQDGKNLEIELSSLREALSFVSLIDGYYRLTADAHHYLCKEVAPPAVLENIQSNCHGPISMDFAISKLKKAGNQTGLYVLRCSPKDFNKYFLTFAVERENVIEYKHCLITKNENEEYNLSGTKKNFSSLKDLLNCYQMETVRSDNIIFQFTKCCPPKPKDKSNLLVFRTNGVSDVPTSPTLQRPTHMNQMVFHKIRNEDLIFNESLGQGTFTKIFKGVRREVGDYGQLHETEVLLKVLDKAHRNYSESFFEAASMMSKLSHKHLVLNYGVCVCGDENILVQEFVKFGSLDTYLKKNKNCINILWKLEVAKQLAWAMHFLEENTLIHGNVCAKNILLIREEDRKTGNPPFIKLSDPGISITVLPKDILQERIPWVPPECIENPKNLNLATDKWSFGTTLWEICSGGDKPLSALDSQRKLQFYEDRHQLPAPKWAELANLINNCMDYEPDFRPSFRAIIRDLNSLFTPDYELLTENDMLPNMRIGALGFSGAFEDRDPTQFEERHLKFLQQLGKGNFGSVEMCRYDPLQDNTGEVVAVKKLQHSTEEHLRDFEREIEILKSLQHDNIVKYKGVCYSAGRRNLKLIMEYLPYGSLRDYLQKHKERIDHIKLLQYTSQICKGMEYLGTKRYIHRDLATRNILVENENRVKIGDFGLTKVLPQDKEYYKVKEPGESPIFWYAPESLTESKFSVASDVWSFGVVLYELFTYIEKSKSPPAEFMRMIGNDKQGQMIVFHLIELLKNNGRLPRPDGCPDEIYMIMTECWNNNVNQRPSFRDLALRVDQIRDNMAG
How it was run: (§5)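 LanthaScreen format: phospho-STAT1 (pTyr701) detected with 2 nM Tb antibody after 10 mM EDTA quench. Kinase step used Km-level ATP and 200 nM STAT1 peptide, 1 h at ambient after 1 h pre-incubation. Inhibition fitted to IC50, reported as pKi.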

JAK1 = JAK1 (Homo sapiens (Human), UniProt P23458); test: Biochemical JAK kinase assay (LanthaScreen), JAK1; settings: for Ki: read-out: JAK1 pKi (converted)
JAK1, sequence (P23458 whole entry): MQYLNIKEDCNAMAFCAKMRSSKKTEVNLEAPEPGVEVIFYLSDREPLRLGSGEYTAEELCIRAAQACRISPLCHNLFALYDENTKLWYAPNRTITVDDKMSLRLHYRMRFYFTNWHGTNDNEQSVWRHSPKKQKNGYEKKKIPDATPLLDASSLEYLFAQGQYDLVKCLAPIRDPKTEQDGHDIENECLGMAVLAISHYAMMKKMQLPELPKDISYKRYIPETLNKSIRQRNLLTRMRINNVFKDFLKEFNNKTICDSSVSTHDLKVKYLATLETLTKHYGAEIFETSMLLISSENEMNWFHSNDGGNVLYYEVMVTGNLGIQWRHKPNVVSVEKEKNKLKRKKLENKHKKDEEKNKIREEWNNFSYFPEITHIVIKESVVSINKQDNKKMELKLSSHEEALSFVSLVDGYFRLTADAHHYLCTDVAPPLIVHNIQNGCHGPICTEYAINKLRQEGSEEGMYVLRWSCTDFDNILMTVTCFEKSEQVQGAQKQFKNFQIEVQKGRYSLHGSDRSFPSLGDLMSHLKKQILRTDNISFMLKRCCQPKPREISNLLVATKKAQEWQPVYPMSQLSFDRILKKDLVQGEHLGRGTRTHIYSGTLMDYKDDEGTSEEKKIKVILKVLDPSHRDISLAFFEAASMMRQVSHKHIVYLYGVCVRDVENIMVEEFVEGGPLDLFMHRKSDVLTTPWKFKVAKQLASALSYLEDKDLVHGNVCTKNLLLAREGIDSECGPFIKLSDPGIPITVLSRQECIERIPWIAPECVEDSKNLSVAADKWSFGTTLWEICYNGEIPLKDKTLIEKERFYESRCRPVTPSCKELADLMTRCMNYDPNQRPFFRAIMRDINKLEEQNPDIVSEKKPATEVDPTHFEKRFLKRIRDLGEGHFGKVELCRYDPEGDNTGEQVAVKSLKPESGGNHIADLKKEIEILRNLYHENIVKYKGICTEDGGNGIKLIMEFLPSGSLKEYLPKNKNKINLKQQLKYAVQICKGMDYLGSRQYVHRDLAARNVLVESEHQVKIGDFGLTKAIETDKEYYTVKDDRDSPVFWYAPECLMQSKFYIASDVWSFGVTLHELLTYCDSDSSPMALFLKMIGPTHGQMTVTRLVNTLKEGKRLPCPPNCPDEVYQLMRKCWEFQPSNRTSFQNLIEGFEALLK
How it was run: as §5

[1] = test system: IL-13 induced STAT6 phosphorylation in BEAS-2B human lung epithelial cells; test: Cellular JAKI potency assay (BEAS-2B); format: cell-based; settings: BEAS-2B cells; for IC50: Homo sapiens, BEAS-2B, read-out: BEAS2B pIC50 (converted)
How it was run: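 AlphaLISA SureFire detection of Tyr641 pSTAT6 in lysates gave IC50s (4-parameter fit, expressed as pIC50). Cells: human BEAS-2B, exposed 1 h at 37 °C to compound dose series at 0.1% DMSO, then 30 min to IL-13 added at 80 ng/mL in HEPES-buffered HBSS with BSA.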

TYK2 = TYK2 (Homo sapiens (Human), UniProt P29597); test: Biochemical JAK kinase assay (LanthaScreen), Tyk2; settings: read-out: Tyk2 pKi (converted)
TYK2, sequence (P29597 whole entry): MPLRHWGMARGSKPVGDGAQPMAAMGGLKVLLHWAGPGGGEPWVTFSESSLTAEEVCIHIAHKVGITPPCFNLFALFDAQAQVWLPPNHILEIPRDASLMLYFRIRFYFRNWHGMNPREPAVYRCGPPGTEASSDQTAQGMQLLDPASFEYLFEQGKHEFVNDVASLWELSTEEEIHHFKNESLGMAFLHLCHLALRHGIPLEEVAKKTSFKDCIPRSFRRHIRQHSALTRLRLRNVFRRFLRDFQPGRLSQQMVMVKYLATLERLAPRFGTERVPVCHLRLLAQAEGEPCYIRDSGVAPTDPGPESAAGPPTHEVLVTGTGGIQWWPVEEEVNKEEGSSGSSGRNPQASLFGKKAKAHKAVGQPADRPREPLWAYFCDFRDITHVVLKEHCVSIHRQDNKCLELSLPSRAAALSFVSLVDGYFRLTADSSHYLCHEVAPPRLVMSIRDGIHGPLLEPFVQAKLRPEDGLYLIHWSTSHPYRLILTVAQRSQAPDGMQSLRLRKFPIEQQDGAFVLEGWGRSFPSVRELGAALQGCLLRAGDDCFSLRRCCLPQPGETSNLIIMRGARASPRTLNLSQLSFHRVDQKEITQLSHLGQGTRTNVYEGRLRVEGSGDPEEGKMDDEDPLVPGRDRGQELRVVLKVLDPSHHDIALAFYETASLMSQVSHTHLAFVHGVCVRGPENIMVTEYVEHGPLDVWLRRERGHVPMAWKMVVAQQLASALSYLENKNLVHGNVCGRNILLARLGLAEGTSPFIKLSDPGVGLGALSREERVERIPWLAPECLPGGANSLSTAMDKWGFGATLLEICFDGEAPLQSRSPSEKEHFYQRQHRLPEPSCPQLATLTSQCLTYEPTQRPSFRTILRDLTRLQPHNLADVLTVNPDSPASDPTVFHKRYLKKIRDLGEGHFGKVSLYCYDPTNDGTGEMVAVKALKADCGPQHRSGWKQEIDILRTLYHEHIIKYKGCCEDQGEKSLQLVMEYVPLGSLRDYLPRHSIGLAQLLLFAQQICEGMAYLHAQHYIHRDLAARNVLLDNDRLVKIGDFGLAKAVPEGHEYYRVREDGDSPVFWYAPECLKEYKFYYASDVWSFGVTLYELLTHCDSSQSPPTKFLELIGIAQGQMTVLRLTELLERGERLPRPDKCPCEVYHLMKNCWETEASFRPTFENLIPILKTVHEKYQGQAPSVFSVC
Description: as §1, §2, §3, §4

JAK3, sequence (P52333 whole entry): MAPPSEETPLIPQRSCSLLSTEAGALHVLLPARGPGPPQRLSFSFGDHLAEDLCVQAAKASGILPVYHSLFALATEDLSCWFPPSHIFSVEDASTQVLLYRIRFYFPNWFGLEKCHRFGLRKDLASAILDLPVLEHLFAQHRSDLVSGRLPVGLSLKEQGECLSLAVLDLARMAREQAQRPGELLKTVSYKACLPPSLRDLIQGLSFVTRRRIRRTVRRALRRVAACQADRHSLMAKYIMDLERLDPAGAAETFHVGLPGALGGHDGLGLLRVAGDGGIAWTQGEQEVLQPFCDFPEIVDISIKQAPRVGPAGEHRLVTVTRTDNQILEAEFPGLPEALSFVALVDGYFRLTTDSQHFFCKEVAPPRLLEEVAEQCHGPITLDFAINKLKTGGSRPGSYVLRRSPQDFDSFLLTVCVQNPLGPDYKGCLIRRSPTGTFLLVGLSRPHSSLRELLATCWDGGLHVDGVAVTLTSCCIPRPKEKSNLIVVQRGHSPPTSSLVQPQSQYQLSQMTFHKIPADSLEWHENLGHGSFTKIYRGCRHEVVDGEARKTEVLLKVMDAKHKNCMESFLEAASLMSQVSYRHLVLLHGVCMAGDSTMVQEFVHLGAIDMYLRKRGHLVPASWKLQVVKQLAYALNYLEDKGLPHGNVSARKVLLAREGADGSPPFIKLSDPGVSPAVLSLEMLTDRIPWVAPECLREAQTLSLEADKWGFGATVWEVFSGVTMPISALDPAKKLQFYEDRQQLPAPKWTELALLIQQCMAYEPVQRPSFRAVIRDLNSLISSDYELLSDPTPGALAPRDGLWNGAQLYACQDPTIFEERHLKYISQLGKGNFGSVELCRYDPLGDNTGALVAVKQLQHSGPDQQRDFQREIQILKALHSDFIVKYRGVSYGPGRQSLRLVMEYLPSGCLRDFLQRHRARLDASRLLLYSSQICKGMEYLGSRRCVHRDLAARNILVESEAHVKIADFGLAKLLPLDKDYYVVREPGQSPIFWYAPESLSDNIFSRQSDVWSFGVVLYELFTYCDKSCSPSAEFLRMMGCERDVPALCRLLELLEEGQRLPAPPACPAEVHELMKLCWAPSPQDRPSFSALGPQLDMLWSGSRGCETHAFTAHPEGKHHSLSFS

SMILES	Ki (JAK3)	JAK2 pKi (JAK2)	JAK1 pKi (JAK1)	IC50 [1]	Ki (TYK2)	Ki (JAK1)	BEAS2B pIC50 [1]	Ki (JAK2)
CCc1cc(O)ccc1-c1ccc2c(-c3nc(C4=CCN(C5CCN(C)CC5)C4)c[nH]3)n[nH]c2c1 [Example 199]	0.1 to 1 nM	A (A represents a pKi value ≥10 (Ki≤0.1 nM))	A (A represents a pKi value ≥10 (Ki≤0.1 nM))	3.16 to 10 nM	0.1 to 1 nM			
CCc1cc(O)ccc1-c1ccc2c(-c3nc(C4=CCN(CCN5CCOCC5)CC4)c[nH]3)n[nH]c2c1 [Example 184]	0.1 to 1 nM	A (A represents a pKi value ≥10 (Ki≤0.1 nM))	A (A represents a pKi value ≥10 (Ki≤0.1 nM))	3.16 to 10 nM	1 to 10 nM			
CCc1cc(O)ccc1-c1ccc2c(-c3nc(C4=CCN(CCO)C4)c[nH]3)n[nH]c2c1F [Example 53]	0.1 to 1 nM	A (A represents a pKi value ≥10 (Ki≤0.1 nM))	A (A represents a pKi value ≥10 (Ki≤0.1 nM))	3.16 to 10 nM	1 to 10 nM			
CCc1cc(O)ccc1-c1ccc2c(-c3nc(C4=CCCN(C5CCNC5)C4)c[nH]3)n[nH]c2c1F (stereo not shown) [Example 214]	0.1 to 1 nM	A (A represents a pKi value ≥10 (Ki≤0.1 nM))		316 to 1000 nM	10 to 100 nM	0.1 to 1 nM		
CCc1cc(O)ccc1-c1ccc2c(-c3nc(C4=CCN([C@H]5CC[C@@H](O)CC5)C4)c[nH]3)n[nH]c2c1F [Example 305]	0.1 to 1 nM	A (A represents a pKi value ≥10 (Ki≤0.1 nM))			0.1 to 1 nM	0.1 to 1 nM	B (B represents a pIC50 value between 7.5 (included) and 8)	
CCc1cc(O)ccc1-c1ccc2c(-c3nc(C4=CCN(CCO)CC4)c[nH]3)n[nH]c2c1 [Example 33]	0.1 to 1 nM	A (A represents a pKi value ≥10 (Ki≤0.1 nM))	A (A represents a pKi value ≥10 (Ki≤0.1 nM))	3.16 to 10 nM	0.1 to 1 nM			
CCc1cc(O)ccc1-c1ccc2c(-c3nc(C4=CCN(C)CC4)c[nH]3)n[nH]c2c1 [Example 19]	0.1 to 1 nM	A (A represents a pKi value ≥10 (Ki≤0.1 nM))	A (A represents a pKi value ≥10 (Ki≤0.1 nM))	3.16 to 10 nM	0.1 to 1 nM			
CCc1cc(O)ccc1-c1ccc2c(-c3nc(C4=CCN(CCO)CC4)c[nH]3)n[nH]c2c1F [Example 36]	0.1 to 1 nM		A (A represents a pKi value ≥10 (Ki≤0.1 nM))	3.16 to 10 nM	1 to 10 nM			0.1 to 1 nM
CCc1cc(O)ccc1-c1ccc2c(-c3nc(C4=CCN(S(=O)(=O)C5CNC5)CC4)c[nH]3)n[nH]c2c1F [Example 178]	1 to 10 nM			100 to 316 nM	10 to 100 nM	1 to 10 nM		0.1 to 1 nM
CCc1cc(O)ccc1-c1ccc2c(-c3nc(C4=CCN(CC)CC4)c[nH]3)n[nH]c2c1F [Example 23]	0.1 to 1 nM			3.16 to 10 nM	1 to 10 nM	0.1 to 1 nM		0.1 to 1 nM
CCOC(=O)C1CC=C(c2c[nH]c(-c3n[nH]c4c(F)c(-c5ccc(O)cc5CC)ccc34)n2)CN1 (stereo not shown) [Example 300]	0.1 to 1 nM			10 to 31.6 nM	1 to 10 nM	0.1 to 1 nM		0.1 to 1 nM
CCc1cc(O)ccc1-c1ccc2c(-c3nc(C4=CCN(C(=O)CN)CC4)c[nH]3)n[nH]c2c1F [Example 157]	0.1 to 1 nM	A (A represents a pKi value ≥10 (Ki≤0.1 nM))		31.6 to 100 nM	1 to 10 nM	0.1 to 1 nM		
CCc1cc(O)ccc1-c1ccc2c(-c3nc(C4=CCN(C5CCCN(C)C5)C4)c[nH]3)n[nH]c2c1F (stereo not shown) [Example 223]	0.1 to 1 nM	A (A represents a pKi value ≥10 (Ki≤0.1 nM))		10 to 31.6 nM	1 to 10 nM	0.1 to 1 nM		
CCc1cc(O)ccc1-c1ccc2c(-c3nc(C4=CC(C)NC4)c[nH]3)n[nH]c2c1 (stereo not shown) [Example 238]	0.1 to 1 nM			3.16 to 10 nM	10 to 100 nM	0.1 to 1 nM		0.1 to 1 nM

— patent publication US20240092758A1, “IMIDAZOLO INDAZOLE COMPOUNDS AS JAK INHIBITORS” (Theravance Biopharma R&D IP, LLC, priority 2021, published 2024)
